What was measured:
[1] = human
[2] = rat
[3] = test system: mice; details: mouse, in vivo; cited from earlier work

| Molecule | Change in penetration with application time [1] | Skin penetration behavior (layer reached) [2] | LD50 in mice [3] [µg/kg] |
| --- | --- | --- | --- |
| CCN1C[C@]2(COC)[C@H](O)C[C@H](OC)[C@@]34[C@@H]5C[C@@]6(O)[C@H](OC(=O)c7ccccc7)[C@@H]5[C@@](OC(C)=O)([C@@H]([C@H](OC)[C@H]23)[C@@H]14)[C@@H](O)[C@@H]6OC [aconitine] | increased penetration occurring at 4 and 10 hours of application in comparison to 1 hour | Complete skin penetration | – |
| Batrachotoxin | – | – | 2 |

From patent publication US9090627B2 (priority 2012, dated 2015)
